Results published in the supplement of paper PMC10307832.

What was measured:
Test in all cases: relative viability (nuclei count vs DMSO), 5 days (fraction); higher = more cells survive
[1] = compound: CC1=CC=C(C=C1)C(=O)CN2C3=C(CCCC3)SC2=N [Pifithrin_alpha] + CS(=O)(=O)N1CCN(Cc2cc3nc(-c4cccc5[nH]ncc45)nc(N4CCOCC4)c3s2)CC1 [Pictilisib] (partner 1 µM)
How it was run: (§1)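 A single step with final 0.05% Triton X-100, 1% formaldehyde and 1 ug/ml Hoechst fixed the cells and stained nuclei 5 days after treatment. Lung cancer cell lines in 1536-well plates had been treated by pin tool the day after seeding with one drug alone or a fixed anchor-drug dose plus five library-drug doses (not always all listed) in √10 steps, and nuclei were counted on 4× images. Relative viability is the ratio of nuclei in treated wells to nuclei in vehicle wells, taken as the median of duplicate plates.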

Bemcentinib + Crizotinib = compound: Nc1nc(Nc2ccc3c(c2)CC[C@@H](N2CCCC2)CC3)nn1-c1cc2c(nn1)-c1ccccc1CCC2 [Bemcentinib] + C[C@@H](Oc1cc(-c2cnn(C3CCNCC3)c2)cnc1N)c1c(Cl)ccc(F)c1Cl [Crizotinib] (partner 1 µM)
How it was run: as §1

Axitinib + Olaparib = compound: CNC(=O)c1ccccc1Sc1ccc2c(/C=C/c3ccccn3)n[nH]c2c1 [Axitinib] + O=C(c1cc(Cc2n[nH]c(=O)c3ccccc23)ccc1F)N1CCN(C(=O)C2CC2)CC1 [Olaparib] (partner 8 µM)
How it was run: as §1

Axitinib + Phenformin = compound: CNC(=O)c1ccccc1Sc1ccc2c(/C=C/c3ccccn3)n[nH]c2c1 [Axitinib] + N=C(N)NC(=N)NCCc1ccccc1 [Phenformin] (partner 250 µM)
How it was run: as §1

Cell Line | relative viability ([1]; first compound 1 µM) | relative viability ([1]; first compound 3.162 µM) | relative viability ([1]; first compound 10 µM) | relative viability ([1]; first compound 31.62 µM) | relative viability ([1]; first compound 100 µM) | relative viability (Bemcentinib + Crizotinib; first compound 0.04 µM) | relative viability (Bemcentinib + Crizotinib; first compound 0.1265 µM) | relative viability (Bemcentinib + Crizotinib; first compound 0.4 µM) | relative viability (Bemcentinib + Crizotinib; first compound 1.265 µM) | relative viability (Bemcentinib + Crizotinib; first compound 4 µM) | relative viability (Axitinib + Olaparib; first compound 0.005 µM) | relative viability (Axitinib + Olaparib; first compound 0.01581 µM) | relative viability (Axitinib + Olaparib; first compound 0.05 µM) | relative viability (Axitinib + Olaparib; first compound 0.1581 µM) | relative viability (Axitinib + Olaparib; first compound 0.5 µM) | relative viability (Axitinib + Phenformin; first compound 0.005 µM) | relative viability (Axitinib + Phenformin; first compound 0.01581 µM) | relative viability (Axitinib + Phenformin; first compound 0.05 µM) | relative viability (Axitinib + Phenformin; first compound 0.1581 µM) | relative viability (Axitinib + Phenformin; first compound 0.5 µM)
201T | 0.603 | 0.525 | 0.52 | 0.53 | 0.551 | 1.05 | 1.03 | 0.983 | 1.05 | 1.07 | 0.861 | 0.805 | 0.795 | 0.859 | 0.875 | 0.475 | 0.412 | 0.449 | 0.446 | 0.399
A549 | 0.703 | 0.586 | 0.435 | 0.434 | 0.342 | 0.786 | 0.795 | 0.966 | 0.824 | 0.742 | 0.471 | 0.36 | 0.373 | 0.327 | 0.412 | 0.204 | 0.198 | 0.217 | 0.149 | 0.216
A-427 | 0.722 | 0.629 | 0.666 | 0.522 | 0.657 | – | 0.95 | 0.843 | 0.931 | 0.863 | 0.778 | 0.843 | 0.803 | 0.753 | 1.01 | 0.356 | 0.29 | 0.416 | 0.323 | 0.289
ABC-1 | 0.273 | 0.745 | 0.735 | 0.429 | 0.437 | 1.06 | 1.26 | 0.934 | 0.95 | 1.02 | 0.735 | – | 0.659 | 0.974 | 0.78 | 0.268 | 0.239 | 0.222 | 0.21 | 0.241
BEN | 0.445 | 0.576 | 0.64 | 0.618 | 0.543 | 0.936 | 1.16 | 0.935 | 0.845 | 0.775 | 1.17 | 1.42 | 0.903 | 1.02 | 1.07 | 0.268 | 0.29 | 0.246 | 0.236 | 0.262
CAL-12T | 0.415 | 0.385 | 0.348 | 0.347 | 0.331 | 0.394 | 0.767 | 0.679 | 0.62 | 0.525 | 0.736 | 0.716 | 0.736 | 0.698 | 0.701 | 0.567 | 0.53 | 0.559 | 0.63 | 0.504
COR-L23 | 0.736 | 0.75 | 0.731 | – | 0.695 | 0.65 | 0.787 | 0.729 | 0.784 | 0.56 | 0.367 | 0.376 | 0.326 | 0.363 | 0.387 | 0.458 | 0.417 | 0.428 | 0.419 | 0.485
COR-L 105 | 0.324 | 0.377 | 0.415 | 0.33 | 0.458 | 0.638 | 0.843 | 0.969 | 0.641 | 0.621 | 0.805 | 0.721 | 0.647 | 0.962 | 0.797 | 0.605 | 0.4 | 0.527 | 0.388 | 0.547
Calu-6 | 1 | 0.907 | 0.816 | 0.546 | 0.644 | 0.76 | 0.958 | 1.09 | 0.858 | 0.676 | 0.554 | 0.605 | 0.607 | 0.555 | 0.681 | – | – | – | – | –
ChaGo-K-1 | 0.431 | 0.653 | 0.631 | 0.473 | 0.559 | 1.12 | 1.33 | 1.15 | 1.18 | 1.12 | 0.473 | 0.445 | 0.412 | 0.441 | 0.438 | 0.467 | 0.428 | 0.506 | 0.437 | 0.469
EBC-1 | 0.261 | 0.224 | 0.237 | 0.198 | 0.214 | 0.185 | 0.214 | 0.179 | 0.236 | 0.193 | 0.788 | 0.648 | 0.768 | 0.69 | 0.769 | – | – | – | – | –
EKVX | 0.328 | 0.283 | 0.281 | 0.235 | 0.214 | 0.973 | 0.981 | 1.06 | 1.03 | 0.986 | 0.979 | 0.826 | 0.902 | 0.883 | 1.03 | 0.243 | 0.222 | 0.214 | 0.233 | 0.216
EMC-BAC-2 | 0.511 | 0.566 | 0.55 | 0.456 | 0.545 | 0.788 | 0.801 | 0.776 | 0.836 | 0.831 | 0.5 | 0.542 | 0.516 | 0.512 | 0.508 | 0.552 | 0.535 | 0.483 | 0.547 | 0.57
EPLC-272H | – | 0.319 | 0.35 | 0.255 | 0.248 | – | 0.96 | 1.05 | 0.86 | 1.01 | 0.845 | 0.927 | 0.884 | 0.475 | 1.13 | 0.324 | 0.326 | 0.341 | 0.279 | 0.304
H3255 | 0.432 | 0.612 | 0.497 | 0.35 | 0.491 | 0.867 | 0.938 | 0.914 | 0.878 | 0.888 | 0.615 | 0.565 | 0.566 | 0.572 | 0.639 | 0.368 | 0.236 | 0.335 | 0.358 | 0.377
HARA | 0.335 | 0.275 | 0.4 | 0.234 | 0.251 | 1.02 | 1.28 | 1.22 | 1.08 | 1.03 | 1.02 | 0.88 | 0.835 | 0.95 | 0.921 | 0.421 | 0.412 | 0.493 | 0.392 | 0.488
